Patent US9815867B2, “Peptide for inhibiting vascular endothelial growth factor receptor” (The University of Tokyo, priority 2012, dated 2017)
Starred links: 1 amine or outer side, 2 acyl side, 3 side chain; linkers in the order of their positions; H or OH if unused. Positions of bridges follow the written chain, without caps; N, C: chain ends. Residues, ends and D or L forms follow the SMILES beside them. X1 = O=C(C[*:2])Nc1cccc(C(=O)[*:1])c1

What was measured:
human VEGFR2 = molecular target: T1, human VEGFR2 (Homo sapiens, UniProt P35968); assay: Binding of cyclic peptide to human VEGFR2 by BLI method (ForteBio); details: VEGFR2-Fc fusion immobilized, 30° C., read-out: koff, dissociation rate constant for human VEGFR2
T1 construct: Fc (fusion partner)
Method: (§1) A dissociation constant of binding between the cyclic peptide L1 or BL1 thus synthesized and human VEGFR2 or mouse VEGFR2 was determined by BLI method (ForteBio). A fusion protein of VEGFR2 and Fc was immobilized onto Anti-human IgG Capture Biosensors and the cyclic peptide L1 or BL1 varied in concentration was analyzed. The temperature was set at 30° C.

mouse VEGFR2 = molecular target: T2, mouse VEGFR2 (Mus musculus, UniProt P35918); assay: Binding of cyclic peptide to mouse VEGFR2 by BLI method (ForteBio); details: VEGFR2-Fc fusion immobilized, 30° C., read-out: koff, dissociation rate constant for mouse VEGFR2
T2 construct: Fc (fusion partner)
Method: as §1

HUVEC = type: cell-based, human; details: 24 h
Method: Next, growth inhibiting activity of L1 and BL1 against HUVEC was examined by BrdU method. HUVEC cells were treated for 30 minutes with a cyclic peptide L1 or BL1 varied in concentration and then, co-incubated with the cyclic peptide and 10 ng/mL of VEGF. Twenty four hours later, the cells were labeled with BrdU for 4 hours in the presence of the cyclic peptide and VEGF. Then, the resulting cells were fixed, stained with a peroxidase-conjugated anti-BrdU antibody, and peroxidase activity was detected using a tetramethylbenzidine color colorimetric substrate. The cells without peptide and VEGF treatments and the cells without only peptide treatment were used as a control.

[1] = test system: HUVEC and human skin-derived fibroblasts; assay: VEGF-dependent angiogenesis, Kurabo angiogenesis kit (HUVEC and human skin-derived fibroblast co-culture); type: cell-based; details: 10 μm-L1 administered group; 10 ng/mL VEGF, 11 days, anti-CD31 staining; compared with 50 μM Suramin
Method: Next, angiogenesis kit of Kurabo was used to study the influence of L1 or BL1 on VEGF-dependent angiogenesis. HUVEC and human skin-derived fibroblasts were co-cultured in the presence of 10 ng/mL of VEGF and L1 or BL1 varied in concentration. After culturing at 37° C., supplementation with VEGF and peptide having the same concentration three days, six days, and eight days later, and fixation of the HUVEC cells 11 days later, the resulting cells were stained with an anti-CD31 antibody to visualize them and analyzed by making use of an image analysis service included in the kit. As a control, 50 μM of an angiogenesis inhibitor Suramin was added instead of the peptide.

T1 sequence (P35968 20-764 limits assumed): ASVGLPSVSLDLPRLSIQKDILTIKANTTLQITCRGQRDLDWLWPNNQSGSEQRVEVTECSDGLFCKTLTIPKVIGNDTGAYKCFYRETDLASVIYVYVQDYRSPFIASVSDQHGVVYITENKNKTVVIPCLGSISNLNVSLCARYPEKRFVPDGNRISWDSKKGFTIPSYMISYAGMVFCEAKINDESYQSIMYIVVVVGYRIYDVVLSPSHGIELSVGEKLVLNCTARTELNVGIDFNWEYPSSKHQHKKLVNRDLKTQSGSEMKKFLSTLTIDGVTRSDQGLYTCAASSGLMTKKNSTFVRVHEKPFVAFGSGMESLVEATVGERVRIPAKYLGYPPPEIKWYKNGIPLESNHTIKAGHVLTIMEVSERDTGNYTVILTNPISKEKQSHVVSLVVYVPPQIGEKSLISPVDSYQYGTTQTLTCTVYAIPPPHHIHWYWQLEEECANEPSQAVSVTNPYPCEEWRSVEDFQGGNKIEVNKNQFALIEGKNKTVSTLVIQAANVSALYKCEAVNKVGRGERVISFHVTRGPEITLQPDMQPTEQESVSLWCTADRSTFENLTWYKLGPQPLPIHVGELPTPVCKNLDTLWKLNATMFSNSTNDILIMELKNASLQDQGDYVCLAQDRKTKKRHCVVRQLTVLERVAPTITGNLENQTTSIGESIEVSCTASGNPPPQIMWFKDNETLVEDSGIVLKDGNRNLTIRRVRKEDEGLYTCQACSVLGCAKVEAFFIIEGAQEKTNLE
T2 sequence (P35918 20-762 limits assumed): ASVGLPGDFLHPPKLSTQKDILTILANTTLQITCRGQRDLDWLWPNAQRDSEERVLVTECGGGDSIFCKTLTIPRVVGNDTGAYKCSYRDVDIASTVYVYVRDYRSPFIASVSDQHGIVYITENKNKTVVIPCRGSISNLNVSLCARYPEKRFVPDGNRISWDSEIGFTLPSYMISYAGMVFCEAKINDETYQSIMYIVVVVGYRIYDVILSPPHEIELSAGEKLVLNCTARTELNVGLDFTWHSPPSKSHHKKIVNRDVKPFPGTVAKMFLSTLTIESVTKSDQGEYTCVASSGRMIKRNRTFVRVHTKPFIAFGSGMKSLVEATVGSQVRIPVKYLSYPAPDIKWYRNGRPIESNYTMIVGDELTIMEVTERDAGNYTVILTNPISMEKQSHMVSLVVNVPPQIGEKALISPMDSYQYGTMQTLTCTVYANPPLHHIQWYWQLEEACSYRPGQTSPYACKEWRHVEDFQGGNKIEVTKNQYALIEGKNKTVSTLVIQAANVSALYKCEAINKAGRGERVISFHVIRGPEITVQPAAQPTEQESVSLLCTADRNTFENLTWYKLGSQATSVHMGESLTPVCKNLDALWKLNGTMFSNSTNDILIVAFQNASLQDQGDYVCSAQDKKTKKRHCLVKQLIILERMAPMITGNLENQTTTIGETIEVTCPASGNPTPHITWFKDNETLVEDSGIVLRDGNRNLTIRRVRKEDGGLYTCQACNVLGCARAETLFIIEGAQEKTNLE

| koff (human VEGFR2) [s⁻¹] | koff (mouse VEGFR2) [s⁻¹] | SMILES | IC50 (HUVEC) [nM] | angiogenesis inhibiting effect [1] |
| --- | --- | --- | --- | --- |
| 0.0009 | 0.0008 | CC[C@H](C)[C@@H]1NC(=O)[C@H](Cc2ccccc2)NC(=O)c2cccc(c2)NC(=O)CSC[C@@H](C(=O)NCC(N)=O)NC(=O)[C@H](CCCNC(=N)N)NC(=O)[C@H](CCC(=O)O)NC(=O)[C@H](CC(C)C)NC(=O)[C@H](CO)NC(=O)[C@H]([C@@H](C)CC)NC(=O)[C@@H]2CCCN2C(=O)[C@H](Cc2c[nH]cn2)NC(=O)[C@H](C(C)C)NC(=O)[C@H](CCCCN)NC(=O)[C@H](C(C)C)NC(=O)[C@H](CCCNC(=N)N)NC(=O)[C@H](Cc2ccc(O)cc2)NC(=O)[C@H](Cc2c[nH]cn2)NC(=O)CNC1=O [BL1, MCAB-L-Phe-Ile-Gly-His-Tyr-Arg-Val-Lys-Val-His-Pro-Ile-Ser-Leu-Glu-Arg-Cys] (FIGHYRVKVHPISLERCG-NH2; linker N-17 via X1) | 60 |  |
| 0.002 |  | CC[C@H](C)[C@@H]1NC(=O)[C@H](Cc2ccc(O)cc2)NC(=O)[C@H](CC(C)C)NC(=O)CNC(=O)[C@H](CC(N)=O)NC(=O)[C@H](C(C)C)NC(=O)[C@H](Cc2c[nH]c3ccccc23)NC(=O)[C@@H]2CCCN2C(=O)[C@H](CC(=O)O)NC(=O)[C@H]([C@@H](C)O)NC(=O)[C@H](CO)NC(=O)[C@H](C(C)C)NC(=O)[C@H](C(C)C)NC(=O)[C@H](C(C)C)NC(=O)[C@H](Cc2ccccc2)NC(=O)CSC[C@@H](C(=O)NCC(N)=O)NC(=O)[C@H](CC(=O)O)NC1=O [L1, ClAc-L-Phe-Val-Val-Val-Ser-Thr-Asp-Pro-Trp-Val-Asn-Gly-Leu-Tyr-Ile-Asp-Cys] | 60 | angiogenesis inhibiting effect stronger than that of Suramin |
